From patent publication US12290519B2, “Anti-inflammatory coupling compound drug, and preparation method therefor and use thereof” (COVAL BIOPHARMA (SHANGHAI) CO., LTD., priority 2021, dated 2025)

Assays:
[1] = Hydrolysis rate / drug release rate of the compounds (release of JAK inhibitor, HPLC); type: physicochemical; details: % release of JAK inhibitor from sample in acetonitrile/water=7/3 (v/v), 37° C. constant temperature shaker, sampled days 1-4, HPLC
In short: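 HPLC quantified parent JAK inhibitor freed from each compound, calibrated with 0.0002–0.08 mg/mL standards. Samples in acetonitrile/water 7/3 were kept sealed at 37° C and analysed at day 0 and on days 1 to 4. % release was computed from sample weight, curve slope/intercept and the molecular-weight ratio.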

[2] = tested on: IMQ-induced psoriasis mouse model; test: IMQ-induced psoriasis mouse model, PASI score of compound ointments applied to skin; type: in vivo; details: ointment 20 mg/g, 50 mg, skin smear BID, day 1 to day 9; BALB/c mice, 5% IMQ cream; Two-way ANOVA p<0.05
Experimental: Efficacy Evaluation Study of Ointment Transdermal Patch Formulated by Compounds Using IMQ-Induced Psoriasis Mouse Model
BALB/c mice (male) aged 6-8 weeks were selected to have depilated back skin with an area of 2×3 cm. 5% IMQ cream 62.5 mg was applied once a day for 9 consecutive days for model induction. Mice were housed in an SPF-grade animal room in IVC cages at a temperature of 20-26° C. and a humidity of 40-70% under a 12-hour light-dark cycle. Diet ad libitum, except where fasting is required.
Mice were randomly divided into groups, a number of 8 mice, administration concentration 20 mg/g, administration amount 50 mg, administration route, and frequency: skin smear, BID. The positive control was compound dexamethasone acetate (Dex) cream which is a commercially available product with a Dex content of 0.75 mg/g (999 Piyanping, Sanjiu Pharmaceutical). Dosing started from day 1 (the first day) (the day of model induction) to day 9.
2. Preparation of Test Ointment
Topical preparations are mostly semi-solid dosage forms. The base and solvent of a semi-solid dosage form are generally widely used in medicine and daily chemical products. The excipients which can be added are also the common excipients in the manual of excipients. Therefore, the patent compounds are prepared into corresponding test ointments. The ointment compound was dissolved with diisopropyl adipate to prepare a vaseline-based ointment. In order to improve the stability of the ointment, microcrystalline cellulose was added as an excipient in the formulation. The white vaseline has a melting point of 45-60° C. The solution, white vaseline, and microcrystalline cellulose are thoroughly mixed while the vaseline is in a molten state. After cooling to solidification, it was divided into an aluminum ointment, and the specific weight ratios of base, solvent, and excipients are shown in Table 4.
Dorsal modeling site skin PASI was performed on the experimental animals.
Statistical analysis of PASI scores was performed using Two-way ANOVA. All data were analyzed using GraphPad Prism 8.0 software with a p<0.05 significant difference (*, p<0.05; **, p<0.01).
The PASI score curves of CPD-029, CPD-028, CPD-027, CPD-017, and CPD-002 compared with the model group, excipient group, and Dex cream group are shown in FIGS. 1, 2, 3, 4, and 5, respectively. Among them, the model group was treated with 62.5 mg of 5% IMQ cream applied to the back skin of mice once daily to induce psoriasis, and the excipient group was treated with 15% (w/w) diisopropyl adipate, 80% vaseline, and […].

Compound | Release Rate (%/day) [1] | PASI score: therapeutic effect compared with the excipient group [2]
CC(C)Cc1ccc([C@H](C)C(=O)n2ccc3c(N(C)[C@H]4CN(C(=O)CC#N)CC[C@H]4C)ncnc32)cc1 [Ex. 2, 3-((3R,4R)-3-((7-((S)-2-(4-isobutylphenyl)propanoyl)-7H-pyrrolo[2,3-d]pyrimidin-4-yl) (methyl)amino)-4-methylpiperidin-1-yl)-3-oxopropanenitrile] | 8.5 %/day | significant therapeutic effect in day 4 day 8
CCS(=O)(=O)N1CC(CC#N)(n2cc(-c3ncnc4c3ccn4C(=O)[C@@H](C)c3ccc(CC(C)C)cc3)cn2)C1 [Ex. 17, (S)-2-(1-(ethylsulfonyl)-3-(4-(7-(2-(4-isobutyl-phenyl)propanoyl)-7H-pyrrolo[2,3-d]pyrimidin-4-yl)-1H-pyrazol-1-yl)azetidin-3-yl)acetonitrile] | 2.44 %/day | significant therapeutic effect in day 5-day 10
CNS(=O)(=O)CC1CCC(N(C)c2ncnc3c2ccn3C(=O)[C@@H](C)c2ccc(CC(C)C)cc2)CC1 (stereo partly drawn) [Ex. 27, 1-((1S, 4R)-4-((7-((S)-2-(4-isobutylphenyl)propanoyl)-7H-pyrrolo [2,3-d]pyrimidin-4-yl) (methyl)amino)cyclohexyl)-N-methyl methanesulfonamide] | 7.48 %/day | significant therapeutic effect in day 5-day 10

The next lines start with results.

Release Rate (%/day) [1] | Compound | PASI score: therapeutic effect compared with the excipient group [2]
2.98 %/day | CC(C)Cc1ccc([C@H](C)C(=O)n2ccc3c(-c4cnn([C@H](CC#N)C5CCCC5)c4)ncnc32)cc1 [Ex. 28] | significant therapeutic effect in day 5-day 10
7.08 %/day | CCC(C(=O)n1ccc2c(N(C)[C@H]3CN(C(=O)CC#N)CC[C@H]3C)ncnc21)c1ccc(N2Cc3ccccc3C2=O)cc1 (stereo partly drawn) [Ex. 29, 3-((3R, 4R)-4-methyl-3-(methyl (7-(2-(4-(1-oxoisoindolin-2-yl)phenyl)butanoyl)-7H-pyrrolo [2,3-d]pyrimidin-4-yl)amino)piperidin-1-yl)-3-oxopropanenitrile] | significant therapeutic effect in day 5-day 10
0.05 %/day | Cc1cnc(NC(=O)C2=C(OCn3ccc4c(N(C)[C@H]5CN(C(=O)CC#N)CC[C@H]5C)ncnc43)c3ccccc3S(=O)(=O)N2C)s1 [Ex. 142, 4-((4-(((3R, 4R)-1-(2-cyanoacetyl)-4-methylpiperidin-3-yl) (methyl)amino)-7H-pyrrolo [2,3-d]pyrimidin-7-yl)methoxy)-2-methyl-N-(5-methylthiazol-2-yl)-2H-benzo [e] [1, 2] thiazine-3-carboxamide 1,1-dioxide] | 
4.29 %/day | CCC(C(=O)n1ccc2c(N3CC[C@]4(C3)[C@@H](C)CN4C(=O)CC#N)ncnc21)c1ccc(N2Cc3ccccc3C2=O)cc1 (stereo partly drawn) [Ex. 143, 3-((3S, 4R)-3-methyl-6-(7-(2-(4-(1-oxoisoindolin-2-yl)phenyl)butanoyl)-7H-pyrrolo [2,3-d]pyrimidin-4-yl)-1,6-diazaspiro [3.4]octan-1-yl)-3-oxopropanenitrile] | 
0.05 %/day | CC(C)Cc1ccc([C@H](C)C(=O)OCn2ccc3c(N4CC[C@]5(C4)[C@@H](C)CN5C(=O)CC#N)ncnc32)cc1 [Ex. 144, (4-((3S, 4R)-1-(2-cyanoacetyl)-3-methyl-1,6-diazaspiro [3.4]octan-6-yl)-7H-pyrrolo [2,3-d]pyrimidin-7-yl) methyl (S)-2-(4-isobutylphenyl) propanoate] | 
